Results reported in US7880007B2, “Bicyclic substituted phenyl piperidine modulators of muscarinic receptors” (Vertex Pharmaceuticals Incorporated, priority 2004, dated 2011).

Columns and labels:
Type in all cases: cell-based
M1 muscarinic receptor = biological target: T1, M1 muscarinic receptor (Homo sapiens, UniProt P11229); test: Functional mobilization of intracellular calcium (FLIPR), M1-CHO cells; conditions: for Emax: 100% efficacy = maximum response obtained with the Carbachol control; for M1 Activity: M1-CHO cells, calcium mobilization (FLIPR)
T1 construct: expressed in transfected cells; host or cells: CHO (M1-CHO)
T1 sequence (P11229 1-460): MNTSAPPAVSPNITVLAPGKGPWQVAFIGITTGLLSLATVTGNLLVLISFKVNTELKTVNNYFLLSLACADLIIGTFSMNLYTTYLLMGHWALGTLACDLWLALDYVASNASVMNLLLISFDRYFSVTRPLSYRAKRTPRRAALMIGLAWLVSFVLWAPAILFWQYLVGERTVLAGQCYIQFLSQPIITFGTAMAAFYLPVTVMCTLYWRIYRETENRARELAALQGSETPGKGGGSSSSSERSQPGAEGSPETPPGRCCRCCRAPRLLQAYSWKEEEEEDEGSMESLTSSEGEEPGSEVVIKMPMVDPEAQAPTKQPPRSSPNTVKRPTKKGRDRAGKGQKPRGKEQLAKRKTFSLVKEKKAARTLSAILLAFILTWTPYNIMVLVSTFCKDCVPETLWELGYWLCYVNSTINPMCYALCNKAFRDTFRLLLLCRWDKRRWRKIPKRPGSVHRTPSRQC
How it was run: (§1)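 Calcium mobilisation read by FLIPR over 60 s (ex 488/em 540 nm) in recombinant muscarinic CHO lines loaded with calcium dye plus 1 mM probenecid. Compounds tested as agonists alone, or as inhibitors against EC80 carbachol after 15 min pre-incubation or co-addition; 0.5% DMSO; efficacy scaled to carbachol maximal response.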

M2 muscarinic receptor = biological target: T2, M2 muscarinic receptor (Homo sapiens, UniProt P08172); test: Functional mobilization of intracellular calcium (FLIPR), M2-CHO cells; conditions: for Emax: 100% efficacy = maximum response obtained with the Carbachol control; for M2 Activity: M2-CHO cells, calcium mobilization (FLIPR)
T2 construct: expressed in transfected cells; host or cells: CHO (M2-CHO)
T2 sequence (P08172 1-466): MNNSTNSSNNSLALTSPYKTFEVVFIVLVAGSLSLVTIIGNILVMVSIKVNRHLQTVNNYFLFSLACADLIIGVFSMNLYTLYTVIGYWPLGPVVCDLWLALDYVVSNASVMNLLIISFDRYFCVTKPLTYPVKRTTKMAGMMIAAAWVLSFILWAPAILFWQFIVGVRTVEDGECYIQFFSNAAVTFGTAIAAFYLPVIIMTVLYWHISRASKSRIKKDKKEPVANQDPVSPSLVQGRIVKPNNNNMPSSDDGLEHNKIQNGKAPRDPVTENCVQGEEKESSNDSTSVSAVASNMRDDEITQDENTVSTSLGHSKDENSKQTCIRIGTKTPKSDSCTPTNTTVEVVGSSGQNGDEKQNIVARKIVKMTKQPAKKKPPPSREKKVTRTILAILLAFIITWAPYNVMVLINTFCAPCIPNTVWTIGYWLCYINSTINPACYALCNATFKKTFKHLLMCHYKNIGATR
How it was run: as §1

M3 muscarinic receptor = biological target: T3, M3 muscarinic receptor (Homo sapiens, UniProt P20309); test: Functional mobilization of intracellular calcium (FLIPR), M3-CHO cells; conditions: for Emax: 100% efficacy = maximum response obtained with the Carbachol control; for M3 Activity: M3-CHO cells, calcium mobilization (FLIPR)
T3 construct: expressed in transfected cells; host or cells: CHO (M3-CHO)
T3 sequence (P20309 whole entry): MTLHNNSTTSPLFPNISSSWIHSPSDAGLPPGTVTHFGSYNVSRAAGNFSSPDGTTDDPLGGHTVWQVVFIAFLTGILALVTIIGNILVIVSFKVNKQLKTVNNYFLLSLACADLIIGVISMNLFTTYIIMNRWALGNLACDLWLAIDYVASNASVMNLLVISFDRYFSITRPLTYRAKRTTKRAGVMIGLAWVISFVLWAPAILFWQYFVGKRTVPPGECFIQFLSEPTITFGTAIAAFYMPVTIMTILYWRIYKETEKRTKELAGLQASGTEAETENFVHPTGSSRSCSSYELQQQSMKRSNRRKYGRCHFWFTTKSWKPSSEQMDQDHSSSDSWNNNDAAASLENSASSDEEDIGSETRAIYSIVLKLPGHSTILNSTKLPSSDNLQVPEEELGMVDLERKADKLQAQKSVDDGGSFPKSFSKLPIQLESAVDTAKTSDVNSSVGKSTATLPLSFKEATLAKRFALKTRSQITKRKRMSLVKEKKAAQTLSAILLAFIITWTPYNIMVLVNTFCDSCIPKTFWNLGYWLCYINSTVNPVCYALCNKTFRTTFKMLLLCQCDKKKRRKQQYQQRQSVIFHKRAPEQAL
Protocol: Functional Mobilization of Intracellular Calcium to Determine Muscarinic Receptor Activity:
CHO cells expressing muscarinic receptors (M1 to M5) are grown as monolayers in tissue culture flasks at 37° C. in a humidified atmosphere containing 5% CO2 and passaged every 3-5 days. The growth media is Dulbecco's modified eagles medium (DMEM, Gibco Cat #12430-054), containing 25 mM Hepes and supplemented with Fetal Bovine Serum (Hyclone, cat #SH30071.03), 0.1 mM of MEM non-essential amino acids (GIBCO, Cat #11140-050), 1 mM MEM Sodium Pyruvate (GIBCO Cat #11360-070) and 100 units/ml of Penicillin G and 100 μg/ml of Streptomycin (GIBCO Cat #15140-122). The recombinant muscarinic receptor cell lines are grown under antibiotic pressure with media containing 25 μg/ml zeocin and 500 μg/ml G418 (M1-CHO), 4 μg/ml puromycin, 50 μg/ml zeocin and 2.5 μg/ml blasticidin (M2 and M4-CHO) or 50 μg/ml zeocin and 4 μg/ml puromycin (M3 and M5-CHO).
Cells are harvested at 80-90% confluence using Versene (GIBCO Cat #15040-066), collected by centrifugation and seeded 18-24 hrs prior to running the calcium assay at a density of 5,000-10,000 cells/well in […], clear-bottomed 384-well plates (BD Biocoat, poly-D-lysine, Cat #356663). The day of the experiment, the cells are washed with a plate washer (Bioteck Instruments, ELX 405) using bath 1 buffer (140-mM NaCl, 4.5-mM KCl, 2-mM CaCl2, 1-mM MgCl2, 10-mM Hepes-Na, 10-mM Glucose, pH 7.4, with NaOH) containing 1 mM Probenecid. Next, the calcium dye Fluo-3 (25 μl/well of Fluo-3 AM at 4 μM, Molecular Probes F-1241, in Bath 1 buffer containing 1 mM Probenecid) is added to the 25 μl of Bath 1 remaining in each well after the plate wash and the dye is loaded at 37° C. in the tissue culture incubator for 60-90 min. The fluorescent dye is removed using the plate washer with Bath 1 containing 1 mM Probenecid, leaving 25 μl/well of this solution after the wash. Alternatively, cells can be loaded with the calcium indicator from Molecular Devices (Calcium 3 Assay Reagents, Cat #R7181) adding 5 μl of a 5× solution dye in Bath 1 containing 1 mM Probenecid (10 ml per dye flask cat #R7182 to generate a solution 20×) to 20 μl of the same buffer. After loading for 60 min, the experiment can be run without having to remove the dye.
Compounds are prepared at a 2× fold concentration in a 96-well plate (round bottom, Costar Corning cat #3656), by reconstituting the pre-spotted compounds in bath 1 containing 1 mM probenecid. The final concentration DMSO is 0.5%, and the amount of DMSO is normalized across the assay plate. To determine an agonist action of the compounds on muscarinic receptors, the reconstituted compounds are added (25 μl compound/well) to the cell assay plate (containing 25 μl/well) using the multi-channel robotic system of the FLIPR 3 Instrument (Molecular Devices, Sunnyvale, Calif.). To determine a functional inhibitory action of the compounds on muscarinic receptors, the reconstituted compounds are added (25 μl compound/well) to the assay plate and pre-incubated for 15 min prior to adding 25 μl of Carbachol at 3× the EC80 for each muscarinic subtype. Alternatively, the compounds can be co-applied simultaneously with the agonist. In both assay modes, the fluorescence is recorded for 60 sec (excitation wavelength is […] and emission wavelength 540 nm) using the FLIPR 3 instrument.
The potency, efficacy and selectivity of the muscarinic compounds were evaluated by screening the compound activity across the whole family (M1 to M5 cells). Compounds were also screened for activity on other proteins such as other GPCRs and ion channels to determine selectivity on M4 receptors.
Examples of activities and efficacies of the muscarinic compounds of formulae (I, Ia, Ib, and II) on modulating M1, M2, M3 and M4 receptors are shown below in Table 3. […]

M4 muscarinic receptor = biological target: T4, M4 muscarinic receptor (Homo sapiens, UniProt P08173); test: Functional mobilization of intracellular calcium (FLIPR), M4-CHO cells; conditions: for Emax: 100% efficacy = maximum response obtained with the Carbachol control; for M4 Activity: M4-CHO cells, calcium mobilization (FLIPR)
T4 construct: expressed in transfected cells; host or cells: CHO (M4-CHO)
T4 sequence (P08173 1-479): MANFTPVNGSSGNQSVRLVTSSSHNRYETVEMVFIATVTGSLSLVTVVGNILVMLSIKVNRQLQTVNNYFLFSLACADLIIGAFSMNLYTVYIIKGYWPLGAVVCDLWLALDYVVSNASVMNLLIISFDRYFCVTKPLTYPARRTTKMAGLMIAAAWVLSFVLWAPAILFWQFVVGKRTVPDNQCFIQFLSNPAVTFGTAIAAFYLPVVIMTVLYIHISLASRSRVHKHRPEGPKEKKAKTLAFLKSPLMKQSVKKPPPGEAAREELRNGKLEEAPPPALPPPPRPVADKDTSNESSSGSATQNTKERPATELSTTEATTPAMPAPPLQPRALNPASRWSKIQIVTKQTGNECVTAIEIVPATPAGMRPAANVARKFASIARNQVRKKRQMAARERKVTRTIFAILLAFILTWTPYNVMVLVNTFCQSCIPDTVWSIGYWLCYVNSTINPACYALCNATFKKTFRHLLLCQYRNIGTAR
How it was run: as §1

Row | SMILES | Emax (M1 muscarinic receptor) | M1 Activity (M1 muscarinic receptor) | Emax (M2 muscarinic receptor) | M2 Activity (M2 muscarinic receptor) | Emax (M3 muscarinic receptor) | M3 Activity (M3 muscarinic receptor) | Emax (M4 muscarinic receptor) | M4 Activity (M4 muscarinic receptor)
1 | COc1ccc(F)cc1C1(F)CCN(C[C@@H]2C[C@H]3C=C[C@H]2C3)CC1 [Compound 5] | 25 to 100% | + (activity was measured to be greater than 5.0 μM) | 25 to 100% | + (activity was measured to be greater than 5.0 μM) | < 25% | + (activity was measured to be greater than 5.0 μM) | 25 to 100% | +++ (activity was measured to be less than 1.0 μM)
2 | COc1ccc(-c2ccc(C(N)=O)cc2)cc1C1CCN([C@H]2C[C@H]3CC[C@H]2C3)CC1 [Compound 6] | < 25% | + (activity was measured to be greater than 5.0 μM) | < 25% | + (activity was measured to be greater than 5.0 μM) | < 25% | + (activity was measured to be greater than 5.0 μM) | < 25% | + (activity was measured to be greater than 5.0 μM)
3 | COc1ccc(-c2ccc(C(C)=O)cc2)cc1C1CCN([C@H]2C[C@H]3CC[C@H]2C3)CC1 [Compound 7] | < 25% | + (activity was measured to be greater than 5.0 μM) | < 25% | + (activity was measured to be greater than 5.0 μM) | < 25% | + (activity was measured to be greater than 5.0 μM) | 25 to 100% | ++ (activity was measured to be from 1.0 μM to 5.0 μM)
4 | COc1ccc(-c2ccc(C(=O)N3CCOCC3)cc2)cc1C1CCN([C@H]2C[C@H]3CC[C@H]2C3)CC1 [Compound 8] | < 25% | + (activity was measured to be greater than 5.0 μM) | < 25% | + (activity was measured to be greater than 5.0 μM) | < 25% | + (activity was measured to be greater than 5.0 μM) | < 25% | + (activity was measured to be greater than 5.0 μM)
5 | COc1ccc(Cl)cc1C1CCN(C2CCCCC2)CC1 [Compound 9] | 25 to 100% | +++ (activity was measured to be less than 1.0 μM) | 25 to 100% | +++ (activity was measured to be less than 1.0 μM) | < 25% | + (activity was measured to be greater than 5.0 μM) | 25 to 100% | +++ (activity was measured to be less than 1.0 μM)
6 | CNC(=O)c1ccc(-c2ccc(OC)c(C3CCN(C4CCOCC4)CC3)c2)cc1Cl [Compound 11] | < 25% | + (activity was measured to be greater than 5.0 μM) | < 25% | + (activity was measured to be greater than 5.0 μM) | < 25% | + (activity was measured to be greater than 5.0 μM) | 25 to 100% | ++ (activity was measured to be from 1.0 μM to 5.0 μM)
7 | O=C(COc1ccccc1C1CCN([C@H]2C[C@H]3CC[C@H]2C3)CC1)c1ccc(F)cc1 [Compound 12] | < 25% | + (activity was measured to be greater than 5.0 μM) | 25 to 100% | + (activity was measured to be greater than 5.0 μM) | < 25% | + (activity was measured to be greater than 5.0 μM) | 25 to 100% | ++ (activity was measured to be from 1.0 μM to 5.0 μM)
8 | COc1ccccc1-c1ccc(OC)c(C2CCN([C@H]3C[C@H]4CC[C@H]3C4)CC2)c1 [Compound 13] | < 25% | + (activity was measured to be greater than 5.0 μM) | < 25% | + (activity was measured to be greater than 5.0 μM) | < 25% | + (activity was measured to be greater than 5.0 μM) | < 25% | + (activity was measured to be greater than 5.0 μM)
9 | CCOC(=O)N1CCC(CN2CCC(c3cc(Cl)ccc3OC)CC2)CC1 [Compound 14] | 25 to 100% | +++ (activity was measured to be less than 1.0 μM) | 25 to 100% | +++ (activity was measured to be less than 1.0 μM) | < 25% | + (activity was measured to be greater than 5.0 μM) | 25 to 100% | +++ (activity was measured to be less than 1.0 μM)
